Test system: 171881-019-R-J1-PDC tumor spheroids, viability
Test: Anticancer human tumor 171881-019-R-J1-PDC patient-derived invasive breast carcinoma cell line growth inhibition [GQUAD]
Conditions: spheroids with HUVEC and MSC; for IC50: curve of first compound; for viability, T/C: stronger effect = lower value
Summary of the method: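 Viability of tumor cells grown as complex spheroids with endothelial and stromal cells, exposed to drug combinations. Top concentration at or near clinical Cmax (else 10 microM), diluted in half-log increments.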

[1] = second compound 0.0316 µM, first compound 0.0316 µM
[2] = second compound 0.0316 µM, first compound 0.1 µM
[3] = second compound 0.0316 µM, first compound 0.316 µM
[4] = second compound 0.0316 µM, first compound 1 µM
[5] = second compound 0.0316 µM, first compound 3.16 µM
[6] = second compound 0.0316 µM, first compound 10 µM
[7] = second compound 0.1 µM, first compound 0.0316 µM
[8] = second compound 0.1 µM, first compound 0.1 µM
[9] = second compound 0.1 µM, first compound 0.316 µM
[10] = second compound 0.1 µM, first compound 1 µM
[11] = second compound 0.1 µM, first compound 3.16 µM
[12] = second compound 0.1 µM, first compound 10 µM
[13] = second compound 0.316 µM, first compound 0.0316 µM
[14] = second compound 0.316 µM, first compound 0.1 µM
[15] = second compound 0.316 µM, first compound 0.316 µM
[16] = second compound 0.316 µM, first compound 1 µM
[17] = second compound 0.316 µM, first compound 3.16 µM
[18] = second compound 0.316 µM, first compound 10 µM
[19] = second compound 1 µM, first compound 0.0316 µM
[20] = second compound 1 µM, first compound 0.1 µM
[21] = second compound 1 µM, first compound 0.316 µM
[22] = second compound 1 µM, first compound 1 µM
[23] = second compound 1 µM, first compound 3.16 µM
[24] = second compound 1 µM, first compound 10 µM
[25] = second compound 3.16 µM, first compound 0.0316 µM
[26] = second compound 3.16 µM, first compound 0.1 µM
[27] = second compound 3.16 µM, first compound 0.316 µM
[28] = second compound 3.16 µM, first compound 1 µM
[29] = second compound 3.16 µM, first compound 3.16 µM
[30] = second compound 3.16 µM, first compound 10 µM
[31] = second compound 10 µM, first compound 0.0316 µM
[32] = second compound 10 µM, first compound 0.1 µM
[33] = second compound 10 µM, first compound 0.316 µM
[34] = second compound 10 µM, first compound 1 µM
[35] = second compound 10 µM, first compound 3.16 µM
[36] = second compound 10 µM, first compound 10 µM
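Wherever viability, T/C is given: 100% = DMSO vehicle control viability.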

COc1ncnc(C2CC2)c1-c1ncc2cnn(Cc3ccc(-c4nc(C(F)(F)F)cn4C(C)C)cc3)c2n1 + CN(C)c1ccc(Nc2c3ccc(NC(=O)CCN4CCCC4)cc3nc3cc(NC(=O)CCN4CCCC4)ccc23)cc1
IC50 (second compound 0.0316 µM): > 10000 nM
IC50 (second compound 0.1 µM): > 10000 nM
IC50 (second compound 0.316 µM): < 31.6 nM
IC50 (second compound 1 µM): < 31.6 nM
IC50 (second compound 3.16 µM): < 31.6 nM
IC50 (second compound 10 µM): < 31.6 nM
viability, T/C [1]: 86.7%
viability, T/C [2]: 100%
viability, T/C [3]: 101%
viability, T/C [4]: 104%
viability, T/C [5]: 92.8%
viability, T/C [6]: 86.3%
viability, T/C [7]: 97%
viability, T/C [8]: 93.3%
viability, T/C [9]: 90.3%
viability, T/C [10]: 88.9%
viability, T/C [11]: 80.3%
viability, T/C [12]: 67.1%
viability, T/C [13]: 39.9%
viability, T/C [14]: 37%
viability, T/C [15]: 35.6%
viability, T/C [16]: 28.8%
viability, T/C [17]: 24.3%
viability, T/C [18]: 11.6%
viability, T/C [19]: 3.06%
viability, T/C [20]: 1.98%
viability, T/C [21]: 2.28%
viability, T/C [22]: 1.99%
viability, T/C [23]: 1.79%
viability, T/C [24]: 1.02%
viability, T/C [25]: 0.27%
viability, T/C [26]: 0.25%
viability, T/C [27]: 0.36%
viability, T/C [28]: 0.22%
viability, T/C [29]: 0.34%
viability, T/C [30]: 0.18%
viability, T/C [31]: 0.13%
viability, T/C [32]: 0.32%
viability, T/C [33]: 0.16%
viability, T/C [34]: 0.41%
viability, T/C [35]: 0.41%
viability, T/C [36]: 0.19%

Cc1[nH]c2ccccc2c1CCNCc1ccc(/C=C/C(=O)NO)cc1 + CN(C)c1ccc(Nc2c3ccc(NC(=O)CCN4CCCC4)cc3nc3cc(NC(=O)CCN4CCCC4)ccc23)cc1
IC50 (second compound 0.0316 µM): 55 nM
IC50 (second compound 0.1 µM): 51.4 nM
IC50 (second compound 0.316 µM): < 0.999 nM
IC50 (second compound 1 µM): < 0.999 nM
IC50 (second compound 3.16 µM): < 0.999 nM
IC50 (second compound 10 µM): < 0.999 nM
viability, T/C (second compound 0.0316 µM, first compound 0.000999 µM): 96.9%
viability, T/C (second compound 0.0316 µM, first compound 0.00316 µM): 104%
viability, T/C (second compound 0.0316 µM, first compound 0.00999 µM): 89.9%
viability, T/C [1]: 76.9%
viability, T/C (second compound 0.0316 µM, first compound 0.0999 µM): 22%
viability, T/C [3]: 0.39%
viability, T/C (second compound 0.1 µM, first compound 0.000999 µM): 95.4%
viability, T/C (second compound 0.1 µM, first compound 0.00316 µM): 75.1%
viability, T/C (second compound 0.1 µM, first compound 0.00999 µM): 84.5%
viability, T/C [7]: 71.8%
viability, T/C (second compound 0.1 µM, first compound 0.0999 µM): 20.2%
viability, T/C [9]: 0.39%
viability, T/C (second compound 0.316 µM, first compound 0.000999 µM): 46.9%
viability, T/C (second compound 0.316 µM, first compound 0.00316 µM): 45.1%
viability, T/C (second compound 0.316 µM, first compound 0.00999 µM): 48.8%
viability, T/C [13]: 28%
viability, T/C (second compound 0.316 µM, first compound 0.0999 µM): 10.8%
viability, T/C [15]: 0.26%
viability, T/C (second compound 1 µM, first compound 0.000999 µM): 4.23%
viability, T/C (second compound 1 µM, first compound 0.00316 µM): 3.43%
viability, T/C (second compound 1 µM, first compound 0.00999 µM): 4.51%
viability, T/C [19]: 1.92%
viability, T/C (second compound 1 µM, first compound 0.0999 µM): 0.8%
viability, T/C [21]: 0.38%
viability, T/C (second compound 3.16 µM, first compound 0.000999 µM): 0.41%
viability, T/C (second compound 3.16 µM, first compound 0.00316 µM): 0.27%
viability, T/C (second compound 3.16 µM, first compound 0.00999 µM): 0.37%
viability, T/C [25]: 0.25%
viability, T/C (second compound 3.16 µM, first compound 0.0999 µM): 0.14%
viability, T/C [27]: 0.13%
viability, T/C (second compound 10 µM, first compound 0.000999 µM): 0.18%
viability, T/C (second compound 10 µM, first compound 0.00316 µM): 0.19%
viability, T/C (second compound 10 µM, first compound 0.00999 µM): 0.16%
viability, T/C [31]: 0.44%
viability, T/C (second compound 10 µM, first compound 0.0999 µM): 0.27%
viability, T/C [33]: 0.17%

O=C(NO)c1cnc(N2CCN(S(=O)(=O)c3ccc4ccccc4c3)CC2)nc1 + CN(C)c1ccc(Nc2c3ccc(NC(=O)CCN4CCCC4)cc3nc3cc(NC(=O)CCN4CCCC4)ccc23)cc1
IC50 (second compound 0.0316 µM): 197 nM
IC50 (second compound 0.1 µM): 215 nM
IC50 (second compound 0.316 µM): < 31.6 nM
IC50 (second compound 1 µM): < 31.6 nM
IC50 (second compound 3.16 µM): < 31.6 nM
IC50 (second compound 10 µM): < 31.6 nM
viability, T/C [1]: 101%
viability, T/C [2]: 73.7%
viability, T/C [3]: 35.6%
viability, T/C [4]: 0.61%
viability, T/C [5]: 0.11%
viability, T/C [6]: 0.11%
viability, T/C [7]: 86.7%
viability, T/C [8]: 80.1%
viability, T/C [9]: 34.8%
viability, T/C [10]: 0.74%
viability, T/C [11]: 0.22%
viability, T/C [12]: 0.38%
viability, T/C [13]: 44.2%
viability, T/C [14]: 37.8%
viability, T/C [15]: 10.6%
viability, T/C [16]: 0.25%
viability, T/C [17]: 0.08%
viability, T/C [18]: 0.21%
viability, T/C [19]: 3.24%
viability, T/C [20]: 1.83%
viability, T/C [21]: 0.75%
viability, T/C [22]: 0.1%
viability, T/C [23]: 0.06%
viability, T/C [24]: 0.31%
viability, T/C [25]: 0.23%
viability, T/C [26]: 0.4%
viability, T/C [27]: 0.28%
viability, T/C [28]: 0.06%
viability, T/C [29]: 0.08%
viability, T/C [30]: 0.1%
viability, T/C [31]: 0.07%
viability, T/C [32]: 0.12%
viability, T/C [33]: 0.38%
viability, T/C [34]: 0.34%
viability, T/C [35]: 0.29%
viability, T/C [36]: 0.15%
